Experiments:
Assay type in all cases: binding, Maus
[1] = system: MAb 4063-21-1 (ECACC 8808/2501); assay: two-step competitive ELISA (BSA-conjugated hapten on plate), anti-atrazine MAb; conditions: for % cross-reactivity (b): (Atrazin conc. for 50 % inhibition)/(analogue conc. for 50 % inhibition) x 100; for I 50 ng/ml (a): inhibitor concentration for 50 % inhibition in competitive ELISA
Excerpt: (§1) Der prozentuale Anteil der Kreuzreaktivität soll im Rahmen dieser Erfindung definitionsgemäss durch die folgende Beziehung wiedergegeben werden: (Atrazin/Hydroxyatrazinkonzentration für 50 % Hemmung/Konzentration der s-Triazin-/Hydroxytriazinanalogen für 50 % Hemmung) x 100.
(§2) Eine 50 %ige Hemmung kann beispielsweise mit Hilfe eines kompetitiven ELISA Assays (vgl. Beispiel 8) bestimmt werden. Diese entspricht dann beispielsweise derjenigen Antigenkonzentration, die zu einer 50 %igen Hemmung der Antikörperbindung an das Träger-gebundene Antigen führt.
(§3) Der Nachweis von Atrazin und Hydroxyatrazin erfolgt mit Hilfe eines zweistufigen, kompetitiven ELISA-Tests.
(§4) BSA-konjugiertes Hapten wird zunächst in einem Natriumcarbonatpuffer (pH 9,6) (0,2 µg/Vertiefung) an Mikrotiterplatten adsorbiert und über Nacht bei einer Temperatur von 4°C inkubiert. Die restlichen freien Bindungsstellen des festen Trägermaterials werden dann durch Zugabe von BSA in Form einer 1 % Lösung blockiert.
(§5) Die Platten werden anschliessend mit PBS gewaschen, das mit 0,1 % (v/v) Polysorbat 20 angereichert ist (PBS-Tween).
(§6) 50 µl der zuvor gereinigten monoklonalen Antikörper (2 µg/ml) oder aber des Ueberstandes der Zellklone (in einer Verdünnung von 1:5 bis 1:22,5) werden a) mit 950 µl einer Standardlösung, die einen steigenden Anteil an Triazin bzw. Triazin-Analogen enthält, b) mit triazinhaltigen Wasserproben oder c) triazinhaltigen Bodenextrakten inkubiert. (Alle Verdünnungen werden in PBS-Tween vorgenommen).
(§7) Nach einer Inkubationszeit von 1 Stunde bei Raumtemperatur werden 200 µl des Gemisches zu jeder Vertiefung der Mikrotiterplatte zugegeben und der gesamte Ansatz wird für eine weitere Stunde inkubiert.
(§8) Die Vertiefungen werden anschliessend 5 x gewaschen und mit 100 µl/Vertiefung Ziegen-anti-Maus IgG Antikörper der konjugiert an alkalische Phosphatase vorliegt (Verdünnung 1:1500) beschickt und für einen Zeitraum von 1,5 Stunden inkubiert.
(§9) Nach erneutem Waschen werden 150 µl/Vertiefung des in 1 mg/ml Diethanolaminpuffer (1 mM, pH 9,8) gelösten Substrates p-Nitrophenylphosphat zu den Vertiefungen zugegeben.
(§10) Ein Farbumschlag, der proportional ist zur Menge an Antikörper, der mit dem an die Festphase gebundenen Antigen reagiert hat, wird bei einer Wellenlänge von 405 nm aufgezeichnet. Die Verdünnungen der einzelnen Proben werden so gewählt, dass man ohne Zugabe eines Inhibitors (Bo) Absorptionswerte in einem Bereich zwischen 0.3 und 0.5 erhält. Für die Kontrollen (ohne Antikörper und mit nicht nachweisbaren Mengen an Antigen) ergeben sich Werte von R ≦ 0.005. Alle Proben werden in dreifacher Ausfertigung bestimmt.
(§11) Zur Ermittlung der in einer Probe enthaltenen Menge an Atrazin/Hydroxyatrazin wird zunächst eine Eichkurve erstellt (Abb. 1), wobei B/Bo x 100 gegen die Konzentration an Inhibitor aufgetragen wird. (Bo bedeutet Absorptionsfähigkeit gemessen ohne Zugabe eines Triazininhibitors zum Antikörper, und B Absorptionsfähigkeit bei Zugabe verschieden konzentrierter Triazin-Inhibitoren) Der I₅₀-Wert gibt diejenige Konzentration des Antigens an, bei der die Antikörperbindung an die Festphase zu 50 % gehemmt wird. Der I₅₀-Wert wird mit Hilfe eines auf die vorliegenden Verhältnisse speziell angepassten ENZFITTER (Leatherbarrow, Elsevier-Biosoft)Kurvenkalkulationsprogramms bestimmt, basierend auf einer 4 Parameter umfassenden logistischen Kurve (Raab GM, 1983). Auch die quantitative Atrazin bzw. Hydroxyatrazinbestimmung in Boden- oder Wasserproben im Rahmen des ELISA wird mit Hilfe des ENZFITTER-Programms durchgeführt, wobei die Anpassung der Kurve auf Standards basiert, die auf jeder Mikrotiterplatte mitlaufen.

[2] = system: Mab 4009-77-20 (ECACC 8808/2502); assay: two-step competitive ELISA (BSA-conjugated hapten on plate), anti-hydroxyatrazine MAb; conditions: for % cross-reactivity (c): (Hydroxyatrazin conc. for 50 % inhibition)/(analogue conc. for 50 % inhibition) x 100; for I 50 ng/ml (a): inhibitor concentration for 50 % inhibition in competitive ELISA
Excerpt: as §1, §2, §3, §4, §5, §6, §7, §8, §9, §10, §11

[3] = system: MAb 4009-85-3 (ECACC 8808/2503); assay: as above; conditions: for % cross-reactivity (c): (Hydroxyatrazin conc. for 50 % inhibition)/(analogue conc. for 50 % inhibition) x 100; for I 50 ng/ml (a): inhibitor concentration for 50 % inhibition in competitive ELISA
Excerpt: as §1, §2, §3, §4, §5, §6, §7, §8, §9, §10, §11

Row | SMILES | % cross-reactivity (b) [1] | I 50 ng/ml (a) [1] | % cross-reactivity (c) [2] | I 50 ng/ml (a) [2] | % cross-reactivity (c) [3] | I 50 ng/ml (a) [3] | I 50 ng/ml (a) ([2]; listed as Hydroxyatrazin) | I 50 ng/ml (a) ([3]; listed as Hydroxyatrazin)
1 | CCNc1nc(NC(C)C)nc(SC)n1 [Ametryn] | 5,0% | 9 ng/mL | <0,05% | >1000 ng/mL | <0,1% | >1000 ng/mL | – | –
2 | CCNc1nc(NC(C)C)nc(OC)n1 [Atraton] | 6,4% | 7 ng/mL | <0,05% | >1000 ng/mL | <0,1% | >1000 ng/mL | – | –
3 | CCNc1nc(Cl)nc(NC(C)C)n1 [Atrazin] | 100,0% | – | <0,05% | >1000 ng/mL | <0,1% | >1000 ng/mL | – | –
4 | CNc1nc(NC(C)C)nc(SC)n1 [Desmetryn] | 0,5% | 90 ng/mL | – | – | – | – | – | –
5 | CCNc1nc(O)nc(NC(C)C)n1 [OH-Atrazin, Hydroxyatrazin] | 2,1% | 21 ng/mL | 100,0% | 0,5 ng/ml | 100,0% | 0,95 ng/ml | 0.5 ng/mL | 0.95 ng/mL
6 | CNc1nc(O)nc(NC(C)C)n1 [OH-Desmetryn, Hydroxydesmetryn] | 0,1% | 360 ng/mL | 71,4% | 0,7 ng/ml | 11,9% | 8 ng/mL | – | –
7 | CC(C)Nc1nc(O)nc(NC(C)C)n1 [OH-Propazin, Hydroxypropazin] | 8,2% | 5,5 ng/ml | 83,3% | 0,6 ng/ml | 100,0% | 0,95 ng/ml | – | –
8 | CCNc1nc(O)nc(NCC)n1 [OH-Simazin, Hydroxysimazin] | 0,3% | 180 ng/mL | 41,7% | 1,2 ng/ml | 1,5% | 65 ng/mL | – | –
9 | CCNc1nc(O)nc(NC(C)(C)C)n1 [OH-Terbuthylazin, Hydroxyterbuthylazin] | 5,6% | 8 ng/mL | 15,2% | 3,3 ng/ml | 5,0% | 19 ng/mL | – | –
10 | COc1nc(NC(C)C)nc(NC(C)C)n1 [Prometon] | 75,0% | 0,6 ng/ml | – | – | – | – | – | –
11 | CSc1nc(NC(C)C)nc(NC(C)C)n1 [Prometryn] | 56,3% | 0,8 ng/ml | – | – | – | – | – | –
12 | CC(C)Nc1nc(Cl)nc(NC(C)C)n1 [Propazin] | 90,0% | 0,5 ng/ml | <0,05% | >1000 ng/mL | <0,1% | >1000 ng/mL | – | –
13 | CCNc1nc(Cl)nc(NCC)n1 [Simazin] | 2,5% | 18 ng/mL | – | – | – | – | – | –
14 | CCNc1nc(NCC)nc(SC)n1 [Simetryn] | 1,7% | 27 ng/mL | – | – | – | – | – | –
15 | CCNc1nc(Cl)nc(NC(C)(C)C)n1 [Terbuthylazin] | 5,0% | 9 ng/mL | – | – | – | – | – | –
16 | CCNc1nc(Cl)nc(N(CC)CC)n1 [Trietazin] | 11,3% | 4 ng/mL | – | – | – | – | – | –

Source: patent EP0365818A1, “Immunological detection of atrazine and atrazine derivatives” (CIBA-GEIGY AG, priority 1988, dated 1990)
